Drawing on patent US20260317312A1, “ISOXAZOLIDINES AS RIPK1 INHIBITORS AND USE THEREOF” (GENZYME CORPORATION, priority 2023, published 2026), this text covers IC50 for 22 compounds.

Each structure is given as a SMILES string.

The subject of one test is U937 cells. The test is described as follows: Cellular assay in U937 cells to measure activity of RIPK1-inhibitors on cell death (necroptosis). Conditions: Homo sapiens, U-937, TNFα/zVAD.fmk induced cell death (necroptosis), overnight (18 to 24 hrs), 37° C., MTS readout. In kind it is cell-based.
For test [1], the target named is T1, hRIPK1 (aa 1-375) fusion protein (Homo sapiens, UniProt Q13546).
T1 construct: hRIPK1 (aa 1-375) fusion protein
T1 sequence (Q13546 1-375): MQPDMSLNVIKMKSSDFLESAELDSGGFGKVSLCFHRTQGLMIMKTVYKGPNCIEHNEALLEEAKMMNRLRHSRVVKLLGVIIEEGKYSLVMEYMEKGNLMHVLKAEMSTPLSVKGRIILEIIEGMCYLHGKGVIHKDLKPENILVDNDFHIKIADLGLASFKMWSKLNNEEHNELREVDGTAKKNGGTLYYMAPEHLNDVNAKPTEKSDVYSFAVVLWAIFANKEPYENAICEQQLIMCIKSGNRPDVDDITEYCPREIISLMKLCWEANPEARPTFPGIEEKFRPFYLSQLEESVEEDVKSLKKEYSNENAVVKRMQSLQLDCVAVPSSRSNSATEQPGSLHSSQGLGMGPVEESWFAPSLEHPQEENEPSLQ
The test is described as follows: Receptor-Interacting Protein Kinase 1 inhibition, ADP Glo assay (conversion of ATP to ADP due to autophosphorylation). Type of test: biochemical. Conditions: ATP 50 μM, 30 min preincubation, 240 min incubation, room temperature, DMSO 1%. Put shortly:
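hRIPK1 (aa 1-375) fusion protein (3.6 μg/ml final) was preincubated 30 min at rt with compound (33300-1.69 nM, 1% DMSO), then 50 μM ATP was added for 240 min at rt. ADP from autophosphorylation was measured by ADP-Glo luminescence and curves fitted by nonlinear regression.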

Consider `N#Cc1ccc(OC[C@H]2CC[C@H](C(=O)N3OCC[C@H]3c3cncc(C#N)c3)CC2)nc1` [Compound 95, trans-5-((S)-2-(4-(((5-cyanopyridin-2-yl)oxy)methyl)cyclohexane-1-carbonyl)isoxazolidin-3-yl)nicotinonitrile], for which the IC50 in the test on U937 cells was 35 nM; in test [1] it was 15 nM.
On to `O=C([C@H]1C[C@@H](n2ncc3cc(F)ccc32)C1)N1OCC[C@H]1c1cc(F)cc(F)c1` [Compound 96, cis-[(3S)-3-(3,5-difluorophenyl)isoxazolidin-2-yl]-[3-(5-fluoroindazol-1-yl)cyclobutyl]methanone], for which the IC50 came out at 906 nM in the test on U937 cells and 47 nM in test [1].
The like results for `O=C([C@H]1C[C@H](n2ncc3cc(F)ccc32)C1)N1OCC[C@H]1c1cc(F)cc(F)c1` [Compound 97, trans-[(3S)-3-(3,5-difluorophenyl)isoxazolidin-2-yl]-[3-(5-fluoroindazol-1-yl)cyclobutyl]methanone] were, in that order, 151 nM and 38 nM.
Take `N#Cc1cc(F)cc([C@@H]2CCON2C(=O)[C@H]2C[C@H](n3ncc4cc(F)ccc43)C2)c1` [Compound 98, trans-3-fluoro-5-[(3S)-2-[3-(5-fluoroindazol-1-yl)cyclobutanecarbonyl]isoxazolidin-3-yl]benzonitrile]: the results for the IC50 (in the test with U937 cells; in test [1]) were 359 nM and 41 nM, respectively.
For `N#Cc1cncc([C@@H]2CCON2C(=O)[C@H]2CC[C@H](COc3ccc(C(N)=O)cn3)CC2)c1` [Compound 99, trans-6-[[4-[(3S)-3-(5-cyano-3-pyridyl)isoxazolidine-2-carbonyl]cyclohexyl]methoxy]pyridine-3-carboxamide], the concentration for half-maximal inhibition (IC50) is 209 nM in the test with U937 cells and 70 nM in test [1].
Take `NC(=O)c1cccc(OC[C@H]2CC[C@H](C(=O)N3OCC[C@H]3c3cnccn3)CC2)c1` [Compound 100, trans-3-[[4-[(3S)-3-pyrazin-2-ylisoxazolidine-2-carbonyl]cyclohexyl]methoxy]benzamide]: the 50% inhibitory concentration (IC50) in the test with U937 cells worked out at 139 nM; in test [1], 42 nM.
The like results for `NC(=O)c1cc(OC[C@H]2CC[C@H](C(=O)N3OCC[C@H]3c3cnccn3)CC2)ccc1F` [Compound 101, trans-2-fluoro-5-[[4-[(3S)-3-pyrazin-2-ylisoxazolidine-2-carbonyl]cyclohexyl]methoxy]benzamide] were, in that order, 140 nM and 40 nM.
As for `NC(=O)c1ccc(OC[C@H]2CC[C@H](C(=O)N3OCC[C@H]3c3cnccn3)CC2)nc1` [Compound 102, trans-6-[[4-[(3S)-3-pyrazin-2-ylisoxazolidine-2-carbonyl]cyclohexyl]methoxy]pyridine-3-carboxamide], the figures for the IC50 (in the test with U937 cells; in test [1]) were 257 nM and 47 nM, respectively.
For the compound `N#Cc1ccc(OC[C@H]2CC[C@H](C(=O)N3OCC[C@H]3c3cnccn3)CC2)nc1` [Compound 103, trans-6-[[4-[(3S)-3-pyrazin-2-ylisoxazolidine-2-carbonyl]cyclohexyl]methoxy]pyridine-3-carbonitrile], the IC50 worked out at 98 nM in the test with U937 cells and 57 nM in test [1].
On to `N#Cc1cc(F)cc(OC[C@H]2CC[C@H](C(=O)N3OCC[C@H]3c3cnccn3)CC2)c1` [Compound 104, trans-3-fluoro-5-[[4-[(3S)-3-pyrazin-2-ylisoxazolidine-2-carbonyl]cyclohexyl]methoxy]benzonitrile], for which the IC50 is 30 nM in the test on U937 cells and 24 nM in test [1].
As to `N#Cc1cc(F)cc([C@@H]2CCON2C(=O)[C@H]2C[C@H](n3ccc4cc(F)ccc43)C2)c1` [Compound 105, trans-3-fluoro-5-[(3S)-2-[3-(5-fluoroindol-1-yl)cyclobutanecarbonyl]isoxazolidin-3-yl]benzonitrile], the half-maximal inhibitory concentration (IC50) in the test on U937 cells worked out at 202 nM; in test [1] it was 36 nM.
As to `O=C([C@H]1C[C@H](n2ccc3cc(F)ccc32)C1)N1OCC[C@H]1c1cc(F)cc(F)c1` [Compound 106, trans-[(3S)-3-(3,5-difluorophenyl)isoxazolidin-2-yl]-[3-(5-fluoroindol-1-yl)cyclobutyl]methanone], the IC50 was 353 nM with U937 cells and 77 nM in test [1].
In the case of `N#Cc1cc(F)cc([C@@H]2CCON2C(=O)[C@H]2C[C@@H](n3ccc4cc(F)ccc43)C2)c1` [Compound 107, cis-3-fluoro-5-[(3S)-2-[3-(5-fluoroindol-1-yl)cyclobutanecarbonyl]isoxazolidin-3-yl]benzonitrile], the IC50 with U937 cells was found to be 214 nM; in test [1], 19 nM.
On to `O=C([C@H]1C[C@@H](n2ccc3cc(F)ccc32)C1)N1OCC[C@H]1c1cc(F)cc(F)c1` [Compound 108, cis-[(3S)-3-(3,5-difluorophenyl)isoxazolidin-2-yl]-[3-(5-fluoroindol-1-yl)cyclobutyl]methanone], for which the IC50 with U937 cells stood at 94 nM; in test [1], 26 nM.
On to `N#Cc1cc(F)cc([C@@H]2CCON2C(=O)[C@H]2C[C@@H](n3cc4cc(F)ccc4n3)C2)c1` [Compound 109, cis-3-fluoro-5-[(3S)-2-[3-(5-fluoroindazol-2-yl)cyclobutanecarbonyl]isoxazolidin-3-yl]benzonitrile], for which the IC50 in the test on U937 cells was found to be 745 nM; in test [1] it was 55 nM.
`O=C([C@H]1C[C@@H](n2cc3cc(F)ccc3n2)C1)N1OCC[C@H]1c1cc(F)cc(F)c1` [Compound 110, cis-[(3S)-3-(3,5-difluorophenyl)isoxazolidin-2-yl]-[3-(5-fluoroindazol-2-yl)cyclobutyl]methanone]: the 50% inhibitory concentration (IC50) is 97 nM in the test on U937 cells and 62 nM in test [1].
`NC(=O)c1ccc(F)c(OC[C@H]2CC[C@H](C(=O)N3OCC[C@H]3c3cnccn3)CC2)c1` [Compound 111, trans-4-fluoro-3-[[4-[(3S)-3-pyrazin-2-ylisoxazolidine-2-carbonyl]cyclohexyl]methoxy]benzamide]: the IC50 in the test on U937 cells came to 153 nM; in test [1], 48 nM.
Turning to `NC(=O)c1cc(F)cc(OC[C@H]2CC[C@H](C(=O)N3OCC[C@H]3c3cnccn3)CC2)c1` [Compound 112, trans-3-fluoro-5-[[4-[(3S)-3-pyrazin-2-ylisoxazolidine-2-carbonyl]cyclohexyl]methoxy]benzamide], the IC50 was 47 nM with U937 cells and 41 nM in test [1].
On to `NC(=O)c1ccc(OC[C@H]2CC[C@H](C(=O)N3OCC[C@H]3c3cnccn3)CC2)c(F)c1` [Compound 113, trans-3-fluoro-4-[[4-[(3S)-3-pyrazin-2-ylisoxazolidine-2-carbonyl]cyclohexyl]methoxy]benzamide], for which the IC50 in the test with U937 cells was found to be 97 nM; in test [1] it was 38 nM.
As to `COc1cncc([C@@H]2CCON2C(=O)[C@H]2CC[C@H](COc3cccc(C(N)=O)c3)CC2)n1` [Compound 129, trans-3-[[4-[(3S)-3-(6-methoxypyrazin-2-yl)isoxazolidine-2-carbonyl]cyclohexyl]methoxy]benzamide], the figures for the concentration for half-maximal inhibition (IC50) (in the test on U937 cells; in test [1]) were 28 nM and 11 nM, respectively.
On to `Cc1nc([C@@H]2CCON2C(=O)[C@H]2CC[C@H](COc3cccc(C(N)=O)c3)CC2)cs1` [Compound 130, trans-3-[[4-[(3S)-3-(2-methylthiazol-4-yl)isoxazolidine-2-carbonyl]cyclohexyl]methoxy]benzamide], for which the IC50 came to 98 nM in the test with U937 cells and 37 nM in test [1].
For the compound `NC(=O)c1cccc(OC[C@H]2CC[C@H](C(=O)N3OCC[C@H]3c3ccccn3)CC2)c1` [Compound 131, trans-3-[[4-[(3S)-3-(2-pyridyl)isoxazolidine-2-carbonyl]cyclohexyl]methoxy]benzamide], the IC50 came to 236 nM in the test on U937 cells and 47 nM in test [1].
